Assay results published in ChEMBL document CHEMBL1201862, “PubChem BioAssay data set” (2004).
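Cultured in 96-well plates, cells were exposed to test compound for 48 hours across five concentrations. The concentration for 50% growth inhibition is given as GI50.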 Active and inactive are the calls of the source. Cut-off read from the data, not from the text of the source: active = GI50 up to about 1.1 µM and inactive = higher.

Columns and labels:
Assay in all cases: NCI tumour cell line growth inhibition, 48 h
HCT-116 = test system: HCT-116
COLO 205 = test system: COLO 205
HOP-62 = test system: HOP-62
NCI-H460 = test system: NCI-H460
SK-MEL-28 = test system: SK-MEL-28
LOX IMVI = test system: LOX IMVI
SW-620 = test system: SW-620
CAKI-1 = test system: CAKI-1
UO-31 = test system: UO-31
RXF 393 = test system: RXF 393
HOP-92 = test system: HOP-92
HT-29 = test system: HT-29
SK-MEL-2 = test system: SK-MEL-2
SNB-75 = test system: SNB-75
OVCAR-5 = test system: OVCAR-5
K562 = test system: K562
IGROV-1 = test system: IGROV-1
SNB-19 = test system: SNB-19
CCRF-CEM = test system: CCRF-CEM
NCI-H522 = test system: NCI-H522

SMILES	GI50 (HCT-116)	GI50 (COLO 205)	GI50 (HOP-62)	GI50 (NCI-H460)	GI50 (SK-MEL-28)	GI50 (LOX IMVI)	GI50 (SW-620)	GI50 (CAKI-1)	GI50 (UO-31)	GI50 (RXF 393)	GI50 (HOP-92)	GI50 (HT-29)	GI50 (SK-MEL-2)	GI50 (SNB-75)	GI50 (OVCAR-5)	GI50 (K562)	GI50 (IGROV-1)	GI50 (SNB-19)	GI50 (CCRF-CEM)	GI50 (NCI-H522)
O=c1ccn(COC(COCc2ccccc2)COCc2ccccc2)c(=O)[nH]1	> 100 µM (inactive)	> 100 µM (inactive)	> 100 µM (inactive)	> 100 µM (inactive)	> 100 µM (inactive)	> 100 µM (inactive)	> 100 µM (inactive)	> 100 µM (inactive)	51.4 µM (inactive)	> 100 µM (inactive)	> 100 µM (inactive)	> 100 µM (inactive)	> 100 µM (inactive)	> 100 µM (inactive)	> 100 µM (inactive)	> 100 µM (inactive)	> 100 µM (inactive)	> 100 µM (inactive)	> 100 µM (inactive)	–
C[C@H]1C(=O)O[C@@H]1[C@H]1COC(C)(C)O1	–	–	> 100 µM (inactive)	> 100 µM (inactive)	> 100 µM (inactive)	–	> 100 µM (inactive)	> 100 µM (inactive)	> 100 µM (inactive)	> 100 µM (inactive)	> 100 µM (inactive)	–	> 100 µM (inactive)	82 µM (inactive)	> 100 µM (inactive)	–	–	> 100 µM (inactive)	32.5 µM (inactive)	–
CCOc1ccc(/C(C=O)=C(\Cl)c2ccc(OC)c(OC)c2)cc1	> 100 µM (inactive)	> 100 µM (inactive)	–	> 100 µM (inactive)	> 100 µM (inactive)	> 100 µM (inactive)	> 100 µM (inactive)	> 100 µM (inactive)	> 100 µM (inactive)	–	> 100 µM (inactive)	> 100 µM (inactive)	> 100 µM (inactive)	–	–	> 100 µM (inactive)	> 100 µM (inactive)	> 100 µM (inactive)	> 100 µM (inactive)	> 100 µM (inactive)
O=C(/C=N/c1ccccc1S)c1ccco1	3.15 µM (inactive)	17.2 µM (inactive)	3.66 µM (inactive)	–	15.8 µM (inactive)	–	14.7 µM (inactive)	19.6 µM (inactive)	1.86 µM (inactive)	15.4 µM (inactive)	–	13.3 µM (inactive)	16.4 µM (inactive)	–	–	18.2 µM (inactive)	9.33 µM (inactive)	4.74 µM (inactive)	3.14 µM (inactive)	15.5 µM (inactive)
COc1cc(/C=C/C(=O)Oc2ccc(NC(C)=O)cc2)ccc1C(=O)O/C=C/c1ccccc1	> 100 µM (inactive)	> 100 µM (inactive)	> 100 µM (inactive)	> 100 µM (inactive)	> 100 µM (inactive)	> 100 µM (inactive)	> 100 µM (inactive)	–	76.4 µM (inactive)	> 100 µM (inactive)	> 100 µM (inactive)	> 100 µM (inactive)	> 100 µM (inactive)	> 100 µM (inactive)	> 100 µM (inactive)	> 31.6 µM (inactive)	> 100 µM (inactive)	> 100 µM (inactive)	> 100 µM (inactive)	> 100 µM (inactive)
CC(C)(C)OC(=O)NCC(=O)NC1C/C(=N\O)c2sccc21 (stereo not drawn)	> 100 µM (inactive)	> 100 µM (inactive)	> 100 µM (inactive)	> 100 µM (inactive)	> 100 µM (inactive)	> 100 µM (inactive)	> 100 µM (inactive)	> 100 µM (inactive)	> 100 µM (inactive)	> 100 µM (inactive)	–	> 100 µM (inactive)	> 100 µM (inactive)	> 100 µM (inactive)	> 100 µM (inactive)	> 100 µM (inactive)	> 100 µM (inactive)	> 100 µM (inactive)	> 100 µM (inactive)	–
C=C(CC)C[C@@H]1C[C@]2(C(=O)OC)c3[nH]c4ccccc4c3CCN2C1=O	14.7 µM (inactive)	33.9 µM (inactive)	17.9 µM (inactive)	21.1 µM (inactive)	19.5 µM (inactive)	17.3 µM (inactive)	16.4 µM (inactive)	16.9 µM (inactive)	17.9 µM (inactive)	12.2 µM (inactive)	14.7 µM (inactive)	19.5 µM (inactive)	17.1 µM (inactive)	21.3 µM (inactive)	21 µM (inactive)	18.9 µM (inactive)	20.3 µM (inactive)	17.8 µM (inactive)	–	14.6 µM (inactive)
O=c1[nH]c(-c2ccc(Cl)cc2)cc2ccsc12	3.3 µM (inactive)	9.82 µM (inactive)	8.07 µM (inactive)	4.74 µM (inactive)	5.15 µM (inactive)	4.36 µM (inactive)	4.69 µM (inactive)	2.52 µM (inactive)	5.94 µM (inactive)	12.2 µM (inactive)	10.6 µM (inactive)	4.07 µM (inactive)	3.21 µM (inactive)	3.66 µM (inactive)	6.34 µM (inactive)	5.16 µM (inactive)	3.49 µM (inactive)	2.49 µM (inactive)	–	3.31 µM (inactive)
COc1ccc(C[C@H](N)C(=O)N2C[C@H](CO)C[C@H](n3ccc(=O)[nH]c3=O)C2)cc1	> 100 µM (inactive)	> 100 µM (inactive)	> 100 µM (inactive)	> 100 µM (inactive)	> 100 µM (inactive)	> 100 µM (inactive)	> 100 µM (inactive)	> 100 µM (inactive)	> 100 µM (inactive)	> 100 µM (inactive)	> 100 µM (inactive)	> 100 µM (inactive)	> 100 µM (inactive)	–	> 100 µM (inactive)	> 100 µM (inactive)	> 100 µM (inactive)	> 100 µM (inactive)	> 100 µM (inactive)	> 100 µM (inactive)
COC(=O)C1C(C)N1C (stereo not drawn)	–	> 100 µM (inactive)	> 100 µM (inactive)	> 100 µM (inactive)	> 100 µM (inactive)	> 100 µM (inactive)	> 100 µM (inactive)	–	–	> 100 µM (inactive)	> 100 µM (inactive)	> 100 µM (inactive)	–	> 100 µM (inactive)	–	> 100 µM (inactive)	> 100 µM (inactive)	> 100 µM (inactive)	> 100 µM (inactive)	> 100 µM (inactive)
CCOC(=O)NC(Nc1ccc(Cl)cn1)(C(F)(F)F)C(F)(F)F	> 100 µM (inactive)	–	> 100 µM (inactive)	> 100 µM (inactive)	> 100 µM (inactive)	> 100 µM (inactive)	–	–	41.4 µM (inactive)	97.5 µM (inactive)	–	> 100 µM (inactive)	> 100 µM (inactive)	> 100 µM (inactive)	> 100 µM (inactive)	> 100 µM (inactive)	–	> 100 µM (inactive)	> 100 µM (inactive)	> 100 µM (inactive)
O=C1c2ccccc2C(=O)N1CC(O)COc1cccc2ccccc12 (stereo not drawn)	> 100 µM (inactive)	> 100 µM (inactive)	> 100 µM (inactive)	> 100 µM (inactive)	> 100 µM (inactive)	> 100 µM (inactive)	> 100 µM (inactive)	16.2 µM (inactive)	> 100 µM (inactive)	–	–	> 100 µM (inactive)	–	–	> 100 µM (inactive)	> 100 µM (inactive)	> 100 µM (inactive)	> 100 µM (inactive)	> 100 µM (inactive)	> 100 µM (inactive)
Clc1ccc(C[P+](c2ccccc2)(c2ccccc2)c2ccccc2)c(Cl)c1	1.63 µM (inactive)	1.16 µM (inactive)	2.79 µM (inactive)	2.4 µM (inactive)	5.98 µM (inactive)	3.28 µM (inactive)	2.94 µM (inactive)	–	–	2.7 µM (inactive)	1.71 µM (inactive)	1.66 µM (inactive)	2.18 µM (inactive)	2.77 µM (inactive)	2.37 µM (inactive)	–	1.87 µM (inactive)	3.04 µM (inactive)	2.99 µM (inactive)	1.67 µM (inactive)
NC(=O)/C(=N\NC(=O)c1cc2ccccc2cc1O)C1C(=O)N(c2ccccc2)N=C1N (stereo not drawn)	27.2 µM (inactive)	28.8 µM (inactive)	34 µM (inactive)	> 100 µM (inactive)	73.6 µM (inactive)	> 100 µM (inactive)	37.2 µM (inactive)	–	7.73 µM (inactive)	29.3 µM (inactive)	22.3 µM (inactive)	44.2 µM (inactive)	21.7 µM (inactive)	20.5 µM (inactive)	22.2 µM (inactive)	–	21.1 µM (inactive)	65.3 µM (inactive)	11.7 µM (inactive)	–
Nc1cc(N2CCOCC2)nc(=O)n1-c1ccccc1	> 100 µM (inactive)	> 100 µM (inactive)	> 100 µM (inactive)	> 100 µM (inactive)	> 100 µM (inactive)	> 100 µM (inactive)	> 100 µM (inactive)	> 100 µM (inactive)	> 100 µM (inactive)	–	> 100 µM (inactive)	> 100 µM (inactive)	> 100 µM (inactive)	> 100 µM (inactive)	> 100 µM (inactive)	> 100 µM (inactive)	> 100 µM (inactive)	> 100 µM (inactive)	> 100 µM (inactive)	–
CCC(C)C1NC(=O)C2CCCN2C(=O)C(CC2CO2)OC(=O)CCNC(=O)C(C)N(C)C(=O)C(C(C)C)N(C)C1=O (stereo not drawn)	< 0.0279 µM (active)	< 0.0236 µM (active)	0.112 µM (active)	–	> 100 µM (inactive)	< 0.0208 µM (active)	0.0478 µM (active)	0.993 µM (active)	7.31 µM (inactive)	0.0713 µM (active)	> 8.22 µM (inactive)	1.73 µM (inactive)	< 0.0158 µM (active)	0.331 µM (active)	1.43 µM (inactive)	0.0946 µM (active)	2.14 µM (inactive)	> 13.4 µM (inactive)	–	3.3 µM (inactive)
